Test results published in US20250034161A1, “SPIROCYCLIC COMPOUND AS KRAS-G12C INHIBITOR” (Shanghai Euregen Biopharma Co., Ltd., priority 2020, published 2025).

How the values were obtained:
[1] = tested on: NCI-H23 (G12C); assay: Cell selectivity test, proliferation inhibition NCI-H23; type: cell-based; conditions: Homo sapiens, 72 hours
Description: (§1) • 1. Test purpose: to detect the proliferation inhibition of the test compounds on NCI-H23, NCI-H2122, HCC827, Mia paca2, A549 and SW837 cell lines. • 2. […] No. FND500); Penicillin-streptomycin was purchased from Gibco (Art. No. 15140-122); 0.25% trypsin-ethylenediaminetetraacetic acid digestive juice (Trypsin-EDTA) was purchased from Gibco (Art. No. 25200-072); dimethyl sulfoxide (DMSO) was purchased from Sigma (Art. No. D2650); 96-well cell plate was purchased from Corning (Art. No. 3610); incubator was purchased from NuAire (model number: NU-5700E); Biosafety cabinet was purchased from AuAire (model number: NU-543-600S); Inverted microscope was purchased from Nikon (Art. No. TS-100); Automated cell counter was purchased from Life technologies (model number: Countess II); Microplate reader was purchased from PerkinElmer (model number: Envision); the data processing software was GraphPad Prism 5.0. […]

[2] = tested on: NCI-H2122 (G12C); assay: Cell selectivity test, proliferation inhibition NCI-H2122; type: cell-based; conditions: Homo sapiens, 72 hours
Description: as §1

[3] = tested on: Mia paca2(G12C); assay: Cell selectivity test, proliferation inhibition Mia paca2; type: cell-based; conditions: Homo sapiens, MIA PaCa-2, 72 hours
Description: as §1

[4] = tested on: SW837(G12C); assay: Cell selectivity test, proliferation inhibition SW837; type: cell-based; conditions: Homo sapiens, 72 hours
Description: as §1

[5] = tested on: A549(G12S); assay: Cell selectivity test, proliferation inhibition A549; type: cell-based; conditions: Homo sapiens, 72 hours
Description: as §1

[6] = tested on: HCC827(wt); assay: Cell selectivity test, proliferation inhibition HCC827; type: cell-based; conditions: Homo sapiens, 72 hours
Description: as §1

[7] = Pharmacokinetics study in mice (IV and PO); type: in vivo; conditions: ICR male mice
Method: Preparation of 0.5% methyl cellulose: 5 g of methyl cellulose were weighed and dissolved in 1000 mL of purified water.
Preparation of oral formulation: a required amount of the test compound was weighed and dissolved in 0.5% methyl cellulose solution to obtain a suspension or solution of 0.5 mg/mL.
Preparation of intravenous injection formulation: a required amount of test compound was weighed, and dissolved in 0.5 mL of dimethyl sulfoxide to prepare a solution of 4 mg/mL. 0.06 mL of the above solution was taken, and 0.12 mL of polyethylene glycol 15 hydroxystearate (solutol) and 1.02 mL of normal saline were added thereto to obtain a solution of 0.2 mg/mL.
Feeding 4 hours after administration.
Sample Collection: blood was collected via the jugular vein or other suitable vein, and 0.03 mL blood was collected at each time point. Samples were placed into tubes containing ethylenediaminetetraacetic acid dipotassium salt and kept on ice before centrifugation. Within 1 hour after blood collection, the blood samples were centrifuged at 2-8° C. and 6800 g for 6 minutes and stored at −80° C. The time points for blood collection were 0.083, 0.25, 0.5, 1, 2, 4, 8 and 24 hours after intravenous and oral administration.

[8] = mouse, plasma, intravenous injection, 1 mg/kg
[9] = mouse, plasma, oral gavage, 5 mg/kg

## C=CC(=O)N1CCN(c2nc(=O)n(-c3c(C)ccnc3C(C)C)c3nc(-c4c(O)cccc4F)c(F)cc23)[C@@H](C)C1 [AMG510]
[1]
  IC50: 0.00755 µM
[2]
  IC50: 0.027 µM
[3]
  IC50: 0.0157 µM
[4]
  IC50: 0.285 µM
[5]
  IC50: > 10 µM
[6]
  IC50: > 10 µM
[7]; oral gavage, 5 mg/kg
  F: 0.33%
[7]; [8]
  AUC(0-inf): 0.227 µg·h/mL
  Cmax: 0.623 µg/mL
  clearance: 4.48 L/h/kg
  half-life: 13.2 min
[7]; mouse, plasma, intravenous injection, 1 mg/kg, read-out: Vz
  Vd: 1.42 L/kg
[7]; [9]
  AUC(0-inf): 0.00612 µg·h/mL
  Cmax: 0.00725 µg/mL
  half-life: 21.6 min
